This assay relates to PARP 1. Put plainly: HTRF assay for PARP 1 inhibitory effect. Format: biochemical, human or bovine. As to conditions: at 10 μM. The text has this: In the HTRF PARP assay according to the invention, histones, as target proteins for modification by PARP, are labeled indirectly with an XL665 fluorophore. The antibody is labeled directly with a europium cryptate. If the XL665 fluorophore is in the direct vicinity in space, which is ensured by binding to the poly(ADP-ribose) on the histone, then an energy transfer is possible. The emission at 665 nm is thus directly proportional to the amount of bound antibody, which in turn is equivalent to the amount of poly(ADP-ribose). The measured signal thus corresponds to the PARP activity. The principle of measurement is depicted diagrammatically in FIG. 7. The materials used are identical to those used in the ELISA (see above) unless expressly stated.
Histones were dissolved in a concentration of 3 mg/ml in Hepes buffer (50 mM, pH=7.5). Biotinylation took place with sulfo-NHS-LC-biotin (Pierce, #21335T). A molar ratio of 4 biotin per histone was used. The incubation time was 90 minutes (RT). The biotinylated histones were then purified on a G25 SF HR10/10 column (Pharmacia, 17-0591-01) in Hepes buffer (50 mM, pH=7.0) in order to remove excess biotinylation reagent. […]
Measurement was then possible after 30 minutes (up to 4 hours). […] The Ki values were calculated as described for the ELISA. […]
In general terms: Time-resolved FRET reads energy transfer from a long-lived donor to a nearby acceptor.

Here are results for 1 compound from patent publication US6903098B1, “Use of phthalazine derivatives” (Abbott GmbH & Co., priority 1999, dated 2005).

In the case of `O=c1[nH]nc(CN2CCN(c3ccccc3)CC2)c2ccccc12` [4-(4-phenylpiperazin-1-yl)methyl-2H-phthalazin-1-one], the “inhibition of PARP 1” value is 38%.
